Test results published in publication PMC11594329, “Development of LAT1-Selective Nuclear Medicine Therapeutics Using Astatine-211” (International Journal of Molecular Sciences, 2024).

What was measured:
PANC-1 tumor model = test: Tissue distribution in nude mice (PANC-1 tumor model); assay type: in vivo, BALB/c nu/nu mice; conditions: nude mice (PANC-1 tumor model)
Experimental: BALB/c nu/nu mice (male, 5 weeks old) were purchased from Japan SLC (Shizuoka, Japan) and subcutaneously transplanted at a density of 1 × 10^7 cells/mouse. PANC-1 cells that reached the logarithmic growth phase were transplanted subcutaneously by mixing a 1 × 10^8 cells/mL cell suspension with an equivalent volume of Matrigel (Corning, Corning, NY, USA) to obtain 1 × 10^7 cells per mouse. Experiments were performed after the size of the transplanted tumor had exceeded 50 mm^3. The doses in the distribution experiments were as follows: ^211At-AAMT-OH-L (0.501 ± 0.011 MBq/mouse, 19.91 ± 0.59 g, n = 3) and ^211At-AAMT-O-Me-L (0.384 ± 0.003 MBq/mouse, 19.18 ± 0.38 g, n = 6 for Table 3), ^211At-AAMT-O-Me-L (158.10 ± 2.94 kBq/mouse, 19.27 ± 0.64 g, n = 6) and ^211At-AAMT-O-Me-D (135.08 ± 2.35 kBq/mouse, 18.64 ± 0.97 g, n = 6), ^211At-AAMT-O-Et-L (0.682 ± 0.011 MBq/mouse, 20.25 ± 1.41 g, n = 6), ^211At-AAMT-O-Pr-L (0.927 ± 0.020 MBq/mouse, 21.74 ± 0.37 g, n = 6).

[1] = Tissue distribution in ICR mice (normal animals); assay type: in vivo
From the text: ICR mice (male, 5 weeks old) were purchased from Japan SLC (Shizuoka, Japan) and acclimated for one week prior to use. The doses in the distribution experiments were as follows: ^211At-AAMT-O-Me-L (0.407 ± 0.005 MBq/mouse, 31.64 ± 0.76 g, n = 6), ^211At-AAMT-O-Me-D (0.351 ± 0.004 MBq/mouse, 31.44 ± 0.94 g, n = 6), ^211At-AAMT-O-Et-L (0.685 ± 0.010 MBq/mouse, 24.14 ± 3.31 g, n = 6), ^211At-AAMT-O-Pr-L (1.09 ± 0.06 MBq/mouse, 26.33 ± 0.39 g, n = 6)

LAT1-Tet/HEK293 cells = test: Uptake versus LAT1 expression level (Dox-induced) in LAT1-Tet/HEK293 cells; assay type: cell-based; conditions: collection 30 min after treatment
Experimental: Each cell line was seeded in 24 wells at 1 × 10^5 cells/mL and allowed to become sub-confluent on the day of the experiment. Cells were washed with PBS (-) (Fujifilm Wako Pure Chemical, Osaka, Japan) prior to the addition of the compound, which was then replaced with uptake buffer. After treating the cells with the same dose, they were collected at predetermined time points. The cell dose was measured using a γ-counter (Wizard^2 2480; PerkinElmer, Waltham, MA, USA), and the protein content of the sample was determined. Protein content was measured using the BCA method, and the dose was corrected using the protein content (Protein Assay BCA kit, Fujifilm Wako Pure Chemical).
Figure 2 Comparison of uptake between the labeled compounds. (A) Relation between uptake ratio and LAT1 expression level. Uptake ratios were compared between LAT1-Tet/HEK293 cells. The Y-axis represents the uptake ratio, and the X-axis is concentration of Doxycycline (Dox) (TaKaRa Bio, Shiga, Japan). The collection time was 30 min after treatment. The expression of LAT1 increased with increasing amounts of Dox. (B) Comparison of uptake in PANC-1 cell line. The collection times were 0.5, 1, 5 and 10 min after treatment.
The PANC-1 cell line was obtained from the RIKEN Cell Bank and maintained in RPMI 1640 medium (Fujifilm Wako Pure Chemical, Osaka, Japan) supplemented with 10% inactivated fetal bovine serum (Thermo Fisher Scientific, Waltham, MA, USA). Mock/HEK293, LAT1/HEK293, and LAT2/HEK203 cells were kindly provided by Dr. Kanai. Cell lines controlling LAT1 expression were constructed using the Tet-on system. HEK293 cells were obtained from the RIKEN Cell Bank and maintained in E-MEM (Fujifilm Wako Pure Chemical) supplemented with 10% inactivated fetal bovine serum (Thermo Fisher Scientific) and non-essential amino acids (Fujifilm Wako Pure Chemical). The expression vectors were purchased from VectorBuilder, Inc. (Kanagawa, Japan). The purified viral particle genes were transfected into HEK293 cells. Drug selection and cloning of the cell line (Tet-LAT1/HEK293) were performed. […]

C[C@](N)(Cc1ccc(O)c([211At])c1)C(=O)O [^211At-AAMT-OH-L, 3-[^211At] Astato-α-methyl-L-tyrosine]
Tissue distribution, Bladder (PANC-1 tumor model; 24 h after injection): 1.01 ± 0.10 %ID/g | Tissue distribution, Blood (PANC-1 tumor model; 24 h after injection): 0.04 ± 0.02 %ID/g | Tissue distribution, Bone (PANC-1 tumor model; 24 h after injection): 4.29 ± 3.90 %ID/g | Tissue distribution, Brain (PANC-1 tumor model; 24 h after injection): 0.68 ± 0.16 %ID/g | Tissue distribution, Cecum (PANC-1 tumor model; 24 h after injection): 6.60 ± 2.78 %ID/g | Tissue distribution, Colon (PANC-1 tumor model; 24 h after injection): 1.03 ± 0.34 %ID/g | Tissue distribution, Heart (PANC-1 tumor model; 24 h after injection): 2.29 ± 1.20 %ID/g | Tissue distribution, Kidney (PANC-1 tumor model; 24 h after injection): 0.07 ± 0.02 %ID/g | Tissue distribution, Liver (PANC-1 tumor model; 24 h after injection): 1.02 ± 0.60 %ID/g | Tissue distribution, Lung (PANC-1 tumor model; 24 h after injection): 1.90 ± 0.55 %ID/g | Tissue distribution, Pancreas (PANC-1 tumor model; 24 h after injection): 2.39 ± 2.03 %ID/g | Tissue distribution, Salivary glands (PANC-1 tumor model; 24 h after injection): 0.42 ± 0.17 %ID/g | Tissue distribution, Small intestine (PANC-1 tumor model; 24 h after injection): 0.09 ± 0.01 %ID/g | Tissue distribution, Spleen (PANC-1 tumor model; 24 h after injection): 0.72 ± 0.22 %ID/g | Tissue distribution, Stomach (PANC-1 tumor model; 24 h after injection): 1.84 ± 0.81 %ID/g | Tissue distribution, Testis (PANC-1 tumor model; 24 h after injection): 0.57 ± 0.44 %ID/g | Tissue distribution, Thyroid (PANC-1 tumor model; 24 h after injection): 11.65 ± 4.36 %ID/g | Tissue distribution, Tumor (PANC-1 tumor model; 24 h after injection): 0.71 ± 0.46 %ID/g | Amount remaining in cecum relative to ^211At-AAMT-O-Me-L (PANC-1 tumor model; after 24 h): 3.2 fold | Amount remaining in femur, including the bone marrow, relative to ^211At-AAMT-O-Me-L (PANC-1 tumor model; after 24 h): 5.7 fold | Amount remaining in pancreas relative to ^211At-AAMT-O-Me-L (PANC-1 tumor model; after 24 h): 4.1 fold | Amount remaining in thyroid relative to ^211At-AAMT-O-Me-L (PANC-1 tumor model; after 24 h): 5.2 fold

CCOc1ccc(C[C@](C)(N)C(=O)O)cc1[211At] [^211At-AAMT-O-Et-L]
Tissue distribution, Bladder ([1]; 1 h after injection): 53.22 ± 43.79 %ID/g | Tissue distribution, Blood ([1]; 1 h after injection): 2.03 ± 0.61 %ID/g | Tissue distribution, Bone ([1]; 1 h after injection): 0.71 ± 0.32 %ID/g | Tissue distribution, Brain ([1]; 1 h after injection): 0.37 ± 0.07 %ID/g | Tissue distribution, Cecum ([1]; 1 h after injection): 0.68 ± 0.25 %ID/g | Tissue distribution, Colon ([1]; 1 h after injection): 8.32 ± 4.87 %ID/g | Tissue distribution, Heart ([1]; 1 h after injection): 6.14 ± 3.75 %ID/g | Tissue distribution, Kidney ([1]; 1 h after injection): 4.70 ± 1.68 %ID/g | Tissue distribution, Liver ([1]; 1 h after injection): 1.41 ± 0.33 %ID/g | Tissue distribution, Lung ([1]; 1 h after injection): 4.47 ± 1.34 %ID/g | Tissue distribution, Pancreas ([1]; 1 h after injection): 7.31 ± 4.45 %ID/g | Tissue distribution, Salivary glands ([1]; 1 h after injection): 7.08 ± 2.00 %ID/g | Tissue distribution, Small intestine ([1]; 1 h after injection): 12.85 ± 7.35 %ID/g | Tissue distribution, Spleen ([1]; 1 h after injection): 2.90 ± 0.95 %ID/g | Tissue distribution, Stomach ([1]; 1 h after injection): 19.50 ± 5.82 %ID/g | Tissue distribution, Testis ([1]; 1 h after injection): 2.36 ± 0.28 %ID/g | Tissue distribution, Thymus ([1]; 1 h after injection): 1.14 ± 0.68 %ID/g | Tissue distribution, Thyroid ([1]; 1 h after injection): 8.98 ± 4.12 %ID/g | Tissue distribution, Bladder ([1]; 3 h after injection): 21.28 ± 15.54 %ID/g | Tissue distribution, Blood ([1]; 3 h after injection): 0.87 ± 0.27 %ID/g | Tissue distribution, Bone ([1]; 3 h after injection): 1.00 ± 0.18 %ID/g | Tissue distribution, Brain ([1]; 3 h after injection): 0.13 ± 0.05 %ID/g | Tissue distribution, Cecum ([1]; 3 h after injection): 1.67 ± 0.24 %ID/g | Tissue distribution, Colon ([1]; 3 h after injection): 1.75 ± 0.49 %ID/g | Tissue distribution, Heart ([1]; 3 h after injection): 1.87 ± 0.80 %ID/g | Tissue distribution, Kidney ([1]; 3 h after injection): 1.56 ± 0.13 %ID/g | Tissue distribution, Liver ([1]; 3 h after injection): 1.06 ± 0.21 %ID/g | Tissue distribution, Lung ([1]; 3 h after injection): 4.93 ± 1.95 %ID/g | Tissue distribution, Pancreas ([1]; 3 h after injection): 1.20 ± 0.40 %ID/g | Tissue distribution, Salivary glands ([1]; 3 h after injection): 15.05 ± 7.81 %ID/g | Tissue distribution, Small intestine ([1]; 3 h after injection): 3.21 ± 0.88 %ID/g | Tissue distribution, Spleen ([1]; 3 h after injection): 2.09 ± 1.08 %ID/g | Tissue distribution, Stomach ([1]; 3 h after injection): 38.74 ± 10.11 %ID/g | Tissue distribution, Testis ([1]; 3 h after injection): 1.20 ± 0.36 %ID/g | Tissue distribution, Thymus ([1]; 3 h after injection): 0.26 ± 0.17 %ID/g | Tissue distribution, Thyroid ([1]; 3 h after injection): 20.22 ± 6.28 %ID/g | Tissue distribution, Bladder (PANC-1 tumor model; 1 h after injection): 15.41 ± 4.39 %ID/g | Tissue distribution, Blood (PANC-1 tumor model; 1 h after injection): 3.63 ± 0.43 %ID/g | Tissue distribution, Bone (PANC-1 tumor model; 1 h after injection): 1.92 ± 0.21 %ID/g | Tissue distribution, Brain (PANC-1 tumor model; 1 h after injection): 0.65 ± 0.11 %ID/g | Tissue distribution, Cecum (PANC-1 tumor model; 1 h after injection): 2.36 ± 0.52 %ID/g | Tissue distribution, Colon (PANC-1 tumor model; 1 h after injection): 3.80 ± 0.50 %ID/g | Tissue distribution, Heart (PANC-1 tumor model; 1 h after injection): 4.41 ± 0.46 %ID/g | Tissue distribution, Kidney (PANC-1 tumor model; 1 h after injection): 6.23 ± 0.94 %ID/g | Tissue distribution, Liver (PANC-1 tumor model; 1 h after injection): 2.54 ± 0.28 %ID/g | Tissue distribution, Lung (PANC-1 tumor model; 1 h after injection): 9.69 ± 1.20 %ID/g | Tissue distribution, Pancreas (PANC-1 tumor model; 1 h after injection): 4.56 ± 0.82 %ID/g | Tissue distribution, Salivary glands (PANC-1 tumor model; 1 h after injection): 13.69 ± 2.13 %ID/g | Tissue distribution, Small intestine (PANC-1 tumor model; 1 h after injection): 4.80 ± 0.63 %ID/g | Tissue distribution, Spleen (PANC-1 tumor model; 1 h after injection): 10.32 ± 4.17 %ID/g | Tissue distribution, Stomach (PANC-1 tumor model; 1 h after injection): 33.25 ± 8.36 %ID/g | Tissue distribution, Testis (PANC-1 tumor model; 1 h after injection): 3.29 ± 0.07 %ID/g | Tissue distribution, Thyroid (PANC-1 tumor model; 1 h after injection): 24.50 ± 4.40 %ID/g | Tissue distribution, Tumor (PANC-1 tumor model; 1 h after injection): 5.64 ± 0.91 %ID/g | Tissue distribution, Bladder (PANC-1 tumor model; 3 h after injection): 12.03 ± 3.42 %ID/g | Tissue distribution, Blood (PANC-1 tumor model; 3 h after injection): 2.23 ± 0.06 %ID/g | Tissue distribution, Bone (PANC-1 tumor model; 3 h after injection): 1.41 ± 0.16 %ID/g | Tissue distribution, Brain (PANC-1 tumor model; 3 h after injection): 0.36 ± 0.10 %ID/g | Tissue distribution, Cecum (PANC-1 tumor model; 3 h after injection): 2.80 ± 0.56 %ID/g | Tissue distribution, Colon (PANC-1 tumor model; 3 h after injection): 3.63 ± 0.34 %ID/g | Tissue distribution, Heart (PANC-1 tumor model; 3 h after injection): 5.15 ± 0.95 %ID/g | Tissue distribution, Kidney (PANC-1 tumor model; 3 h after injection): 3.74 ± 0.78 %ID/g | Tissue distribution, Liver (PANC-1 tumor model; 3 h after injection): 1.93 ± 0.23 %ID/g | Tissue distribution, Lung (PANC-1 tumor model; 3 h after injection): 10.67 ± 1.28 %ID/g | Tissue distribution, Pancreas (PANC-1 tumor model; 3 h after injection): 2.01 ± 0.20 %ID/g | Tissue distribution, Salivary glands (PANC-1 tumor model; 3 h after injection): 19.70 ± 2.93 %ID/g | Tissue distribution, Small intestine (PANC-1 tumor model; 3 h after injection): 3.23 ± 0.22 %ID/g | Tissue distribution, Spleen (PANC-1 tumor model; 3 h after injection): 13.31 ± 2.43 %ID/g | Tissue distribution, Stomach (PANC-1 tumor model; 3 h after injection): 18.47 ± 2.59 %ID/g | Tissue distribution, Testis (PANC-1 tumor model; 3 h after injection): 3.32 ± 0.33 %ID/g | Tissue distribution, Thyroid (PANC-1 tumor model; 3 h after injection): 31.26 ± 11.36 %ID/g | Tissue distribution, Tumor (PANC-1 tumor model; 3 h after injection): 5.24 ± 1.39 %ID/g | Uptake ratio versus LAT1 expression (doxycycline concentration) (LAT1-Tet/HEK293 cells): lower cellular uptake when LAT1 expression increased
